From ChEMBL document CHEMBL3885861, “Open TG-GATES”

Organism: Rattus norvegicus
Experiment: Open TG-GATES - Regimen: Single
Assay type: toxicity, organism-based, Sprague-Dawley
Parameters: regimen Single, gender Male, age 6 weeks
Details: in vivo, po, 5 mg/kg, route gavage; for TG / TP / gamma-GTP / A/G / ALP / ALT / AST / BUN / CRE / Ca / Cl / DBIL / GLC / IP / K / LDH / Na / PL / RALB / TBIL / TC: tissue Plasma; for APTT / Bas / Eos / Fbg / Hb / Ht / Lym / MCH / MCHC / MCV / Mono / Neu / PT / Plat / RBC / Ret / WBC: tissue Blood; for KIDNEY_L / KIDNEY_R / KIDNEY_TOTAL: tissue Kidney; for LIVER: tissue Liver

Structure (SMILES): COc1ccc2c(c1)c(CC(=O)O)c(C)n2C(=O)c1ccc(Cl)cc1 [INDOMETHACIN]
- TG (3 h, dose level Low): 59.6 mg/dL
- TP (3 h, dose level Low): 5.4 g/dL
- gamma-GTP (3 h, dose level Low): 1 IU/L
- TERMINAL_BW (6 h, dose level High): 202.4 g
- TERMINAL_BW (6 h, dose level Low): 222.1 g
- APTT (6 h, dose level High): 16.9 s
- Bas (6 h, dose level High): 0%
- Eos (6 h, dose level High): 0.8%
- Fbg (6 h, dose level High): 205.2 mg/dL
- Hb (6 h, dose level High): 12.7 g/dL
- Ht (6 h, dose level High): 38.6%
- Lym (6 h, dose level High): 69.4%
- MCH (6 h, dose level High): 21.3 pg
- MCHC (6 h, dose level High): 32.8%
- MCV (6 h, dose level High): 64.9 fL
- Mono (6 h, dose level High): 13%
- Neu (6 h, dose level High): 16.8%
- PT (6 h, dose level High): 12.8 s
- Plat (6 h, dose level High): 112.7 x10_4/uL
- RBC (6 h, dose level High): 594.6 x10_4/ul
- Ret (6 h, dose level High): 10.3%
- WBC (6 h, dose level High): 87.2 x10_2/uL
- APTT (6 h, dose level Low): 18.4 s
- Eos (6 h, dose level Low): 0.4%
- Fbg (6 h, dose level Low): 230 mg/dL
- Hb (6 h, dose level Low): 13.9 g/dL
- Ht (6 h, dose level Low): 38%
- Lym (6 h, dose level Low): 79.6%
- MCH (6 h, dose level Low): 22.6 pg
- MCHC (6 h, dose level Low): 36.4%
- MCV (6 h, dose level Low): 62 fL
- Mono (6 h, dose level Low): 2.8%
- Neu (6 h, dose level Low): 15.4%
- PT (6 h, dose level Low): 12.4 s
- Plat (6 h, dose level Low): 118.2 x10_4/uL
- RBC (6 h, dose level Low): 613.2 x10_4/ul
- Ret (6 h, dose level Low): 8%
- WBC (6 h, dose level Low): 100.8 x10_2/uL
- KIDNEY_L (6 h, dose level High): 0.9 g
- KIDNEY_R (6 h, dose level High): 0.9 g
- KIDNEY_TOTAL (6 h, dose level High): 1.9 g
- KIDNEY_L (6 h, dose level Low): 1 g
- KIDNEY_R (6 h, dose level Low): 1 g
- LIVER (6 h, dose level High): 9 g
- LIVER (6 h, dose level Low): 9.1 g
- A/G (6 h, dose level High): 1.9
- ALP (6 h, dose level High): 908.6 IU/L
- ALT (6 h, dose level High): 35.6 IU/L
- AST (6 h, dose level High): 69 IU/L
- BUN (6 h, dose level High): 13.6 mg/dL
- CRE (6 h, dose level High): 0.5 mg/dL
- Ca (6 h, dose level High): 10.2 mg/dL
- Cl (6 h, dose level High): 108.2 meq/L
- DBIL (6 h, dose level High): 0.014 mg/dL
- GLC (6 h, dose level High): 194.8 mg/dL
- IP (6 h, dose level High): 9.4 mg/dL
- K (6 h, dose level High): 5.1 meq/L
- LDH (6 h, dose level High): 186.4 IU/L
- Na (6 h, dose level High): 137.4 meq/L
- PL (6 h, dose level High): 120 mg/dL
- RALB (6 h, dose level High): 3.8 g/dL
- TBIL (6 h, dose level High): 0.3 mg/dL
- TC (6 h, dose level High): 68.4 mg/dL
- TG (6 h, dose level High): 48 mg/dL
- TP (6 h, dose level High): 5.8 g/dL
- gamma-GTP (6 h, dose level High): 1.2 IU/L
- A/G (6 h, dose level Low): 1.5
- ALP (6 h, dose level Low): 938.4 IU/L
- ALT (6 h, dose level Low): 36.2 IU/L
- AST (6 h, dose level Low): 75.8 IU/L
- BUN (6 h, dose level Low): 12 mg/dL
- CRE (6 h, dose level Low): 0.4 mg/dL
- Ca (6 h, dose level Low): 10.4 mg/dL
- Cl (6 h, dose level Low): 103.2 meq/L
- DBIL (6 h, dose level Low): 0.076 mg/dL
- GLC (6 h, dose level Low): 197.2 mg/dL
- IP (6 h, dose level Low): 9.2 mg/dL
- K (6 h, dose level Low): 4 meq/L
- LDH (6 h, dose level Low): 231 IU/L
- Na (6 h, dose level Low): 140.8 meq/L
- PL (6 h, dose level Low): 135.2 mg/dL
- RALB (6 h, dose level Low): 3.3 g/dL
- TBIL (6 h, dose level Low): 0.1 mg/dL
- TC (6 h, dose level Low): 77.4 mg/dL
- TG (6 h, dose level Low): 62.8 mg/dL
- TP (6 h, dose level Low): 5.4 g/dL
- gamma-GTP (6 h, dose level Low): 0.8 IU/L
- TERMINAL_BW (9 h, dose level High): 198.4 g
- TERMINAL_BW (9 h, dose level Low): 221 g
- APTT (9 h, dose level High): 16.9 s
- Bas (9 h, dose level High): 0%
- Eos (9 h, dose level High): 0.6%
- Fbg (9 h, dose level High): 213.6 mg/dL
- Hb (9 h, dose level High): 13.2 g/dL
- Ht (9 h, dose level High): 39.6%
- Lym (9 h, dose level High): 84.2%
- MCH (9 h, dose level High): 21.6 pg
- MCHC (9 h, dose level High): 33.3%
- MCV (9 h, dose level High): 65 fL
- Mono (9 h, dose level High): 7.8%
- Neu (9 h, dose level High): 7.4%
- PT (9 h, dose level High): 12.6 s
- Plat (9 h, dose level High): 102.6 x10_4/uL
- RBC (9 h, dose level High): 609.4 x10_4/ul
- Ret (9 h, dose level High): 9.6%
- WBC (9 h, dose level High): 107 x10_2/uL
- APTT (9 h, dose level Low): 18.2 s
- Eos (9 h, dose level Low): 0.4%
- Fbg (9 h, dose level Low): 228.6 mg/dL
- Hb (9 h, dose level Low): 13.7 g/dL
- Ht (9 h, dose level Low): 37.7%
- Lym (9 h, dose level Low): 76.4%
- MCH (9 h, dose level Low): 22.2 pg
- MCHC (9 h, dose level Low): 36.4%
- MCV (9 h, dose level Low): 60.8 fL
- Mono (9 h, dose level Low): 3%
- Neu (9 h, dose level Low): 18%
- PT (9 h, dose level Low): 12.2 s
- Plat (9 h, dose level Low): 126.8 x10_4/uL
- RBC (9 h, dose level Low): 620.4 x10_4/ul
- Ret (9 h, dose level Low): 7.9%
- WBC (9 h, dose level Low): 86 x10_2/uL
- KIDNEY_L (9 h, dose level High): 0.9 g
- KIDNEY_R (9 h, dose level High): 0.9 g
- KIDNEY_TOTAL (9 h, dose level High): 1.9 g
- KIDNEY_R (9 h, dose level Low): 1 g
- LIVER (9 h, dose level High): 8.1 g
- LIVER (9 h, dose level Low): 8.6 g
- A/G (9 h, dose level High): 2.5
- ALP (9 h, dose level High): 961.6 IU/L
- ALT (9 h, dose level High): 34.6 IU/L
- AST (9 h, dose level High): 66 IU/L
- BUN (9 h, dose level High): 12.6 mg/dL
- CRE (9 h, dose level High): 0.5 mg/dL
- Ca (9 h, dose level High): 10.1 mg/dL
- Cl (9 h, dose level High): 105.6 meq/L
- DBIL (9 h, dose level High): 0.042 mg/dL
- GLC (9 h, dose level High): 183.4 mg/dL
- IP (9 h, dose level High): 9.8 mg/dL
- K (9 h, dose level High): 5.3 meq/L
- LDH (9 h, dose level High): 192.8 IU/L
- Na (9 h, dose level High): 137.2 meq/L
- PL (9 h, dose level High): 117 mg/dL
- RALB (9 h, dose level High): 3.9 g/dL
- TBIL (9 h, dose level High): 0.5 mg/dL
- TC (9 h, dose level High): 65.6 mg/dL
- TG (9 h, dose level High): 34.4 mg/dL
- TP (9 h, dose level High): 5.4 g/dL
